# Experimental data reported in patent US7910556B2, “PAR-2 agonist” (Kowa Company, Ltd., priority 2004, dated 2011).
# Read-outs that look alike come from different tables or passages of the source. Square brackets hold non-standard residues; d marks the D form. Ends that are not written are not given here. Peptide text beside a SMILES is read from it. * marks the point of attachment. Arg(NO2) = N=C(NCCC[C@H](N)C(=O)O)N[N+](=O)[O-]; NHCH2CH2(piperidin-1-yl) = C1CCN(CCN*)CC1; Benzofuran(2-CO) = O=C(c1cc2ccccc2o1)*; Imidazole4carbonyl = O=C(c1cnc[nH]1)*; Isoxazole(3-carbonyl) = O=C(c1ccon1)*; Cha = N[C@@H](CC1CCCCC1)C(=O)O; Nicotinoyl = O=C(c1cccnc1)*; Picolinoyl = O=C(c1ccccn1)*; 2Furoyl = O=C(c1ccco1)*; X1 = Cc1cc(C(=O)*)oc1C; X2 = O=C(c1ccc(Br)o1)*; Bz = O=C(c1ccccc1)*
# T1: PAR-2 (Homo sapiens, UniProt P55085)
# T1 sequence (P55085 26-397): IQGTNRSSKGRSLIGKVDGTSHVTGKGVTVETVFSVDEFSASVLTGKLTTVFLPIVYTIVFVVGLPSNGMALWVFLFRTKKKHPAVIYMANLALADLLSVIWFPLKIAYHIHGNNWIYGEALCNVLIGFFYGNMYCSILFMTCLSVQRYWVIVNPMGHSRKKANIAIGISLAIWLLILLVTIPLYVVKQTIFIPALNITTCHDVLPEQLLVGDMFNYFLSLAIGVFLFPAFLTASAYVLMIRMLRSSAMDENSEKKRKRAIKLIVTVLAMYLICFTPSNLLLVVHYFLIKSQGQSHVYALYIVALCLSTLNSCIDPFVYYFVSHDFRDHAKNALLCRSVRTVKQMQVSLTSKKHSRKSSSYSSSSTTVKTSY
# T2: human PAR-2 (Protease-activated receptor-2) (human, UniProt P55085 37-397)
# T2 sequence (looked up): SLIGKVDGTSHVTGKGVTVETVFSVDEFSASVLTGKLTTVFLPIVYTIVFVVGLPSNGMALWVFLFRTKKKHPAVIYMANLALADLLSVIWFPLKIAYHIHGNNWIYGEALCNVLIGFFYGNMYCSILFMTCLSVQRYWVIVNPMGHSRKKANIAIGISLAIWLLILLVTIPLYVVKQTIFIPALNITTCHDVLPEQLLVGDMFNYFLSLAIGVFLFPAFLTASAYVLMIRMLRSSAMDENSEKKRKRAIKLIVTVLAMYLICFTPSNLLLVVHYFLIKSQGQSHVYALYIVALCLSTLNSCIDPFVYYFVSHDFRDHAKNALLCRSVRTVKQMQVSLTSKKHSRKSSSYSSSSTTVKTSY
# What was measured:
# [1] = target: human PAR-2 (Protease-activated receptor-2) (human) (UniProt P55085); assay: cell-based or functional assay
# PAR-2 [2] = target: T1, PAR-2; assay: Intracellular calcium dynamics assay (modified Hawthorne et al. method) in HCT-15 cells; format: cell-based; design: endogenous in cells; host or cells: HCT-15 human colorectal adenocarcinoma cells; settings: for agonist activation compared with the comparative peptide SLIGKV-OH: HCT-15 cells, calcium assay, statement in words
# Description: The PAR-2 activation of peptide derivatives represented by the general formula (1) can be tested by known various methods. For example, PAR-2 activation of peptide derivates can be tested by the methods namely, “Hollenberg method” (Hollenberg, M. D., et al., Can. J. Physiol. Pharmacol., 75, 832-841 (1997)), “Kawabata et al. method” (Kawabata, A., et al., J. Pharmacol. Exp. Ther., 288, 358-370 (1999)), “Howthorne et al. method” (Howthorne et al., A High-Throughput Microtiter Plate-Based Calcium Assay for the Study of Protease-Activated Receptor 2 Activation, Analytical Biochemistry 290, 378-379 (2001)), and the like. The present inventors tested PAR-2 activation potency by the modified “Hawthorne et al. method”. More specifically the method is to assay intracellular calcium dynamic expressing human PAR-2 inherently. In this assay, under probenecid inhibiting anion-exchange transporter the inventors measured intracellular calcium dynamic mediated PAR-2 agonist(concentration variation) by a multiple-well plate reader wherein introducing Ca^2+ sensitive fluorescent dye and stimulating this cell by PAR-2 agonist.
# This method is explained below in more detail.
# Thereafter, the cells were stimulated with various concentration test compounds and measured at an excitation wavelength of 485 nm and at a measurement wavelength of 525 nm (cut-off 515 nm) with a fluorometer scanning a multiple well (Flex Station, Molecular Devices). As a comparative compound, SLIGKV-OH which is a known PAR-2 activated peptide was used.
# PAR-2 [3] = target: T1, PAR-2; settings: relative to TRAP (tethered receptor agonist peptide); cited from earlier work
# [4] = target: T2, human PAR-2 (Protease-activated …); assay: cell-based or functional assay
Molecule,"Agonist activity (EC50, µM); intracellular calcium, HCT-15 cells [1] [µM]",EC50 (PAR-2 [2]) [µM],also measured
"O=C(CNC(=O)[C@H](CC1CCCCC1)NC(=O)c1cccnc1)NCC(=O)N[C@@H](CC1CCCCC1)C(=O)NCCN1CCCCC1 [Example 4, nicotinoyl-β-cyclohexyl-L-alanyl-glycyl-glycyl-β-cyclohexyl-L-alanine 2-(1-piperidinyl)ethyl amide] (Nicotinoyl-[Cha]GG[Cha]-{NHCH2CH2(piperidin-1-yl)})",,1.6 ± 0.1,
"O=C(CNC(=O)[C@H](CC1CCCCC1)NC(=O)c1ccc(Br)o1)NCC(=O)N[C@@H](CC1CCCCC1)C(=O)NCCN1CCCCC1 [Example 3, 5-bromo-2-furoyl-β-cyclohexyl-L-alanyl-glycyl-glycyl-β-cyclohexyl-L-alanine 2-(1-piperidinyl)ethyl amide] (X2-[Cha]GG[Cha]-{NHCH2CH2(piperidin-1-yl)})",,0.7 ± 0.2,
CC(C)C[C@H](NC(=O)[C@H](CCCNC(=N)N[N+](=O)[O-])NC(=O)c1ccccc1)C(N)=O [N^60-benzoyl-Arg(NO2)-Leu-NH2] (Bz-[Arg(NO2)]-Leu-NH2),,,"PAR-2 activation, action strength relative to TRAP (PAR-2 [3]): about one of hundred action strength of TRAP"
"O=C(CNC(=O)[C@H](CC1CCCCC1)NC(=O)c1ccon1)NCC(=O)N[C@@H](CC1CCCCC1)C(=O)NCCN1CCCCC1 [Example 6, isoxazole-3-carbonyl-β-cyclohexyl-L-alanyl-glycyl-glycyl-β-cyclohexyl-L-alanine 2-(1-piperidinyl)ethyl amide] ({Isoxazole(3-carbonyl)}-[Cha]GG[Cha]-{NHCH2CH2(piperidin-1-yl)})",,6.6 ± 3.1,
2-furoyl-β-cyclohexyl-L-alanyl-glycyl-glycyl-β-cyclohexyl-L-alanine 2-(1-piperidinyl)ethyl amide (peptide),16.5,,
"Cc1cc(C(=O)N[C@@H](CC2CCCCC2)C(=O)NCC(=O)NCC(=O)N[C@@H](CC2CCCCC2)C(=O)NCCN2CCCCC2)oc1C [Example 8, 4,5-dimethyl-2-furoyl-β-cyclohexyl-L-alanyl-glycyl-glycyl-β-cyclohexyl-L-alanine 2-(1-piperidinyl)ethyl amide] (X1-[Cha]GG[Cha]-{NHCH2CH2(piperidin-1-yl)})",,,"agonist activation compared with the comparative peptide SLIGKV-OH (PAR-2 [2]): almost same as the comparative peptide; EC50 (PAR-2 [2]; HCT-15 human colorectal adenocarcinoma cells expressing PAR-2 inherently, Ca2+ sensitive fluorescent dye, 2.5 mM probenecid, read-out: Agonist activity (EC50)): 16.5 ± 2.1 µM"
"O=C(CNC(=O)[C@H](CC1CCCCC1)NC(=O)c1cnc[nH]1)NCC(=O)N[C@@H](CC1CCCCC1)C(=O)NCCN1CCCCC1 [Example 9, imidazole-4-carbonyl-β-cyclohexyl-L-alanyl-glycyl-glycyl-β-cyclohexyl-L-alanine 2-(1-piperidinyl)ethyl amide] (Imidazole4carbonyl-[Cha]GG[Cha]-{NHCH2CH2(piperidin-1-yl)})",,14.9 ± 1.3,agonist activation compared with the comparative peptide SLIGKV-OH (PAR-2 [2]): almost same as the comparative peptide
"O=C(CNC(=O)[C@H](CC1CCCCC1)NC(=O)c1ccccn1)NCC(=O)N[C@@H](CC1CCCCC1)C(=O)NCCN1CCCCC1 [Example 7, picolinoyl-β-cyclohexyl-L-alanyl-glycyl-glycyl-β-cyclohexyl-L-alanine 2-(1-piperidinyl)ethyl amide] (Picolinoyl-[Cha]GG[Cha]-{NHCH2CH2(piperidin-1-yl)})",,7.6 ± 2.6,
"O=C(CNC(=O)[C@H](Cc1ccccc1)NC(=O)c1ccco1)NCC(=O)N[C@@H](CC1CCCCC1)C(=O)NCCN1CCCCC1 [Example 2, 2-furoyl-L-phenylalanyl-glycyl-glycyl-β-cyclohexyl-L-alanine 2-(1-piperidinyl)ethyl amide] (2Furoyl-FGG[Cha]-{NHCH2CH2(piperidin-1-yl)})",,2.9 ± 0.6,
"O=C(CNC(=O)[C@H](CC1CCCCC1)NC(=O)c1ccco1)NCC(=O)N[C@@H](CC1CCCCC1)C(=O)NCCN1CCCCC1 [Example 1, 2-furoyl-β-cyclohexyl-L-alanyl-glycyl-glycyl-β-cyclohexyl-L-alanyine 2-(1-piperidinyl)ethyl amide] (2Furoyl-[Cha]GG[Cha]-{NHCH2CH2(piperidin-1-yl)})",,16.5 ± 3.4,agonist activation compared with the comparative peptide SLIGKV-OH (PAR-2 [2]): almost same as the comparative peptide
"4,5-dimethyl-2-furoyl-β-cyclohexyl-L-alanyl-glycyl-glycyl-β-cyclohexyl-L-alanine 2-(1-piperidinyl)ethyl amide (peptide)",16.5,,
"O=C(CNC(=O)[C@H](CC1CCCCC1)NC(=O)c1cc2ccccc2o1)NCC(=O)N[C@@H](CC1CCCCC1)C(=O)NCCN1CCCCC1 [Example 5, benzofuran-2-carbonyl-β-cyclohexyl-L-alanyl-glycyl-glycyl-β-cyclohexyl-L-alanine 2-(1-piperidinyl)ethyl amide] ({Benzofuran(2-CO)}-[Cha]GG[Cha]-{NHCH2CH2(piperidin-1-yl)})",,0.8 ± 0.2,
SLIGKV-OH [SLIGKV-OH (Ser-Leu-Ile-Gly-Lys-Val-OH)],,,"Agonist activity (EC50, µM); intracellular calcium, HCT-15 cells [4]: 15.6 µM"

# The next lines start with results.
"Agonist activity (EC50, µM); intracellular calcium, HCT-15 cells [1] [µM]",Molecule,EC50 (PAR-2 [2]) [µM],also measured
0.7,5-bromo-2-furoyl-β-cyclohexyl-L-alanyl-glycyl-glycyl-β-cyclohexyl-L-alanine 2-(1-piperidinyl)ethyl amide (peptide),,
7.6,picolinoyl-β-cyclohexyl-L-alanyl-glycyl-glycyl-β-cyclohexyl-L-alanine 2-(1-piperidinyl)ethyl amide (peptide),,
0.8,benzofuran-2-carbonyl-β-cyclohexyl-L-alanyl-glycyl-glycyl-β-cyclohexyl-L-alanine 2-(1-piperidinyl)ethyl amide (peptide),,
2.9,2-furoyl-L-phenylalanyl-glycyl-glycyl-β-cyclohexyl-L-alanine 2-(1-piperidinyl)ethyl amide (peptide),,
6.6,isoxazole-3-carbonyl-β-cyclohexyl-L-alanyl-glycyl-glycyl-β-cyclohexyl-L-alanine 2-(1-piperidinyl)ethyl amide (peptide),,
1.6,nicotinoyl-β-cyclohexyl-L-alanyl-glycyl-glycyl-β-cyclohexyl-L-alanine 2-(1-piperidinyl)ethyl amide (peptide),,
14.9,imidazole-4-carbonyl-β-cyclohexyl-L-alanyl-glycyl-glycyl-β-cyclohexyl-L-alanine 2-(1-piperidinyl)ethyl amide (peptide),,
